Assay results taken from article PMC10482691, “LTP induction by structural rather than enzymatic functions of CaMKII” (Nature, 2023).

Experiments:
Format in all cases: biochemical
CaMKIIγ(h) = CaMKIIγ(h) (Homo sapiens, UniProt Q13555); assay: Kinase selectivity panel (residual activity at 1 μM); conditions: inhibitor at 1 μM; read-out: residual kinase activity in % of maximal activity
JAK3(h) = JAK3(h) (Homo sapiens, UniProt P52333); assay: as above; conditions: inhibitor at 1 μM; read-out: residual kinase activity in % of maximal activity
JAK3(h), sequence (P52333 whole entry): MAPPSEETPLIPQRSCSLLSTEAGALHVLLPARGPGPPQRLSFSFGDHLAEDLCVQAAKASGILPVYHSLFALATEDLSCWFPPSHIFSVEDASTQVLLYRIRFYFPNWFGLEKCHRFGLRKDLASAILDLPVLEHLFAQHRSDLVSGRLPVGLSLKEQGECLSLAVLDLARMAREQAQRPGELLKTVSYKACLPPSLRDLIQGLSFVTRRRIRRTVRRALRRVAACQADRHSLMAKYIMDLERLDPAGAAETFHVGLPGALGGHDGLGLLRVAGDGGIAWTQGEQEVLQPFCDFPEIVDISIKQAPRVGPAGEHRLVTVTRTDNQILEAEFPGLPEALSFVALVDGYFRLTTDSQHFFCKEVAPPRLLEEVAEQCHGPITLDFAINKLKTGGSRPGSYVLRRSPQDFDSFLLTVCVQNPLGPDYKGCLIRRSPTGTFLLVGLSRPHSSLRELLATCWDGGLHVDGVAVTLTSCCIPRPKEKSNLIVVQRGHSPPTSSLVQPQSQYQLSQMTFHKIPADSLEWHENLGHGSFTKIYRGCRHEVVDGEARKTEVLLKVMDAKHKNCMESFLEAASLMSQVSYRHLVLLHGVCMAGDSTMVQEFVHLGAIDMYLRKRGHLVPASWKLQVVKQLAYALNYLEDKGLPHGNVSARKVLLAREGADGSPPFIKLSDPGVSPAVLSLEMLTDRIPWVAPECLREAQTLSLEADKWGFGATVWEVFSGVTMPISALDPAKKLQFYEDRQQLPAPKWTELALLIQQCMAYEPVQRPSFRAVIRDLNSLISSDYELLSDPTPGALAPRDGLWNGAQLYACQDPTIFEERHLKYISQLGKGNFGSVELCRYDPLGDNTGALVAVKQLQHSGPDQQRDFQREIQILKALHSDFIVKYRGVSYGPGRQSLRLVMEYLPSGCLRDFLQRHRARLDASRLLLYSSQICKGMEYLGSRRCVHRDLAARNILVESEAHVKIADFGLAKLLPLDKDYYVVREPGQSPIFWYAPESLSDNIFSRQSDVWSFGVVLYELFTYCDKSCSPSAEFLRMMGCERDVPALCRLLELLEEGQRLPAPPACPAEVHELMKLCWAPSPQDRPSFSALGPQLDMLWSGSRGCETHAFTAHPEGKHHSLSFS

JNK2α2(h) = JNK2α2(h) (Homo sapiens, UniProt P45984); assay: as above; conditions: inhibitor at 1 μM
JNK2α2(h), sequence (P45984 whole entry): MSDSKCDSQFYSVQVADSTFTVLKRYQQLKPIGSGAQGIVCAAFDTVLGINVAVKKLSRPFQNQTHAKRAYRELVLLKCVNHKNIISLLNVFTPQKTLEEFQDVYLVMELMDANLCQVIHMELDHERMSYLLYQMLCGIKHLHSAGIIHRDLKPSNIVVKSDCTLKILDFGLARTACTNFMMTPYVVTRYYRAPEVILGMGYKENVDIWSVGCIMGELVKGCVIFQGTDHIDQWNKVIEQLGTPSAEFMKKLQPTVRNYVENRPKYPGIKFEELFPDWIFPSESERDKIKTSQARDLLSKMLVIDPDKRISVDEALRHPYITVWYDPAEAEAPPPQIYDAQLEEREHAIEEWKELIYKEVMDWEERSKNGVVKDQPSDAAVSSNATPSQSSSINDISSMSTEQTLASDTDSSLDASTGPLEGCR

MEK1(h) = MEK1(h) (Homo sapiens, UniProt Q02750); assay: as above; conditions: inhibitor at 1 μM; read-out: residual kinase activity in % of maximal activity
MEK1(h), sequence (Q02750 whole entry): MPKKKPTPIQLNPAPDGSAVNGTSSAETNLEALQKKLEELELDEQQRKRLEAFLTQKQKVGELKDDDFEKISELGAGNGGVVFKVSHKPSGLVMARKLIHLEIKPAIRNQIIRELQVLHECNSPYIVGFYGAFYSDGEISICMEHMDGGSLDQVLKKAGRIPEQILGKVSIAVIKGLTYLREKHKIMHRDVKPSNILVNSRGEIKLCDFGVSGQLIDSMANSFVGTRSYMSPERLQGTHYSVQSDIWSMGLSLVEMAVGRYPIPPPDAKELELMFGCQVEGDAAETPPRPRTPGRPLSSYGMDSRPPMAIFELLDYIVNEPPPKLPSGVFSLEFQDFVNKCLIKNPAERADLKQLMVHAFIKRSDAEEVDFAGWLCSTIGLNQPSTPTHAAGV

CaMKIIα F89G = CaMKIIα F89G (Homo sapiens, UniProt Q9UQM7, F89G); assay: In vitro kinase reactions with CaMKII F89G ± NM-PP1 (pT286, pS831); conditions: 10 µM NM-PP1
Method: Fig. 4 The CaMKII mutation F89G impairs ATP binding but binds the ATP-competitive inhibitor NM-PP1 that restores GluN2B binding and LTP-induced synaptic translocation. Data are presented as mean values ± s.e.m. a, Schematic of the pharmacogenetic method of ATP-competitive CaMKII inhibition; enlargement of the CaMKII ATP-binding pocket by the F89G mutation allows for selective binding of the ATP-competitive inhibitor NM-PP1. b, Immunoblots of in vitro kinase reactions at 30 °C including GFP–CaMKII WT, K42M and F89G with GST–GluA1-c tail. […] Correlation indices were measured before and after Ionomycin-induced colocalization of GFP–CaMKII (WT, K42M and F89G) with mCherry-2BC, represented as change in the correlation index (vehicle: n = 22, 17, 12 cells; NM-PP1: n = 20, 24, 13 cells; one-way ANOVA, Tukey’s multiple comparisons test). […] CaMKII synaptic enrichment was measured before and after cLTP (n = 13, 14, 14 cells; RM two-way ANOVA with Šídák’s multiple comparisons test). […] CaMKII synaptic enrichment was measured before and after cLTP (n = 7, 6, 7 cells; RM two-way ANOVA with Šídák’s multiple comparisons test). […]
CaMKII-mediated phosphorylation of GluA1 S831 or GluN2B S1303 was measured by in vitro kinase reaction with a purified GST–GluA1 C-terminal tail or GST-GluN2B C-terminal tail. […]

CaMKIIγ(h), sequence (Q13555 whole entry): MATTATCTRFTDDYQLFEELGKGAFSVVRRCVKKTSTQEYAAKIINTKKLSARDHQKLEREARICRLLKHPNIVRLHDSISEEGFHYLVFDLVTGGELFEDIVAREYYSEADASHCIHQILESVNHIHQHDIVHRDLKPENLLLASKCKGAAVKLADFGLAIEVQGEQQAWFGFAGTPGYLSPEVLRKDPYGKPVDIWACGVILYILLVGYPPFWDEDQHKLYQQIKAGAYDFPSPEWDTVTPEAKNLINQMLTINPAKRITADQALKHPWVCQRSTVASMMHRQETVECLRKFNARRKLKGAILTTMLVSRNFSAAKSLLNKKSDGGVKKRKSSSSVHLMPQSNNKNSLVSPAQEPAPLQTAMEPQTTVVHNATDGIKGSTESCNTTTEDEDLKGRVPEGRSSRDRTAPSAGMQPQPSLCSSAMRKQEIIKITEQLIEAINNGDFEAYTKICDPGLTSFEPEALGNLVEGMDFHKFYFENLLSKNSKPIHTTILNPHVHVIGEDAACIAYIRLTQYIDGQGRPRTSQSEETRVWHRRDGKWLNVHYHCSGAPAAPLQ

Structure (SMILES)	remaining activity at 1 µM (CaMKIIγ(h)) [%]	remaining activity at 1 µM (JAK3(h)) [%]	residual kinase activity in % of maximal activity (JNK2α2(h)) [%]	remaining activity at 1 µM (MEK1(h)) [%]	effect on residual activity of CaMKII F89G (CaMKIIα F89G)
NCCNc1cccc(-c2ccnc3[nH]c4ccccc4c23)c1 [AS283]	2	92	82	85	
CC(C)(C)n1nc(Cc2cccc3ccccc23)c2c(N)ncnc21 [NM-PP1]					further reduced
